Laboratory results reported in article PMC5118696, “Identification of inhibitors that dually target the new permeability pathway and dihydroorotate dehydrogenase in the blood stage of Plasmodium falciparum” (Scientific Reports, 2016).

These compounds were tested on Hyp1-NLuc Plasmodium falciparum-infected erythrocytes (new permeability pathway, NPP) (assay: microbe, parasite or virus in culture). Conditions: Erythrocyte, 0.33 h, read-out: Mean RLU at 28 min (As % of DMSO control).

Structure (SMILES)	activity at 2 µM [%]
CCOc1ccccc1CN1CCc2nc3cc(C(C)(C)C)nn3c(O)c2C1 [MMV396595]	88.3
FC(F)(F)c1ccc(Nc2nnnc3ccccc23)cc1 [MMV665935]	99.5
CCCCNCC(O)(c1ccc(Cl)cc1)c1ccc(Cl)cc1 [MMV665929]	107
O=C(CSc1ccc2nnc(-c3cccc(F)c3)n2n1)Nc1ccc2c(c1)OCO2 [MMV665918]	106
COc1ccc(C(=O)C2CC2c2ccc(Cl)cc2)cc1 (centres unmarked) [MMV665924]	100
Cc1ccc(C)c(Cn2c(N3CCC(C(=O)NCc4cccs4)CC3)nc3ccccc32)c1 [MMV019741]	104
CCn1c(SCC(=O)Nc2cc(C(F)(F)F)ccc2Cl)nc2ccccc2c1=O [MMV666103]	100
c1ccc2cc3c(Nc4ccc(N5CCOCC5)cc4)ccnc3cc2c1 [MMV006861]	109
COc1ccc(C=C2SC(Nc3ccccc3)=NC2=O)cc1 [MMV665836]	86.5
OC(CNCC1CCCO1)Cn1c2ccc(Cl)cc2c2cc(Cl)ccc21 (centres unmarked) [MMV396736]	116
COc1cccc(-c2nn(C)c3sc(C(=O)NCCN4CCN(c5ccccc5F)CC4)cc23)c1 [MMV019064]	110
Cc1c(C)n(CC(O)CNC2CCCCC2C)c2ccccc12 (centres unmarked) [MMV665806]	106
Cc1ccc(N2C(=O)C3C(C2=O)C2(c4ccccc4)C(=O)C3(c3ccccc3)C(c3ccccc3)=C2c2ccccc2)cc1 (centres unmarked) [MMV666062]	106
CC1=C(CC(=O)c2cccc([N+](=O)[O-])c2)C(=O)c2ccccc2C1=O [MMV666125]	96.1
CCC1(C)CC(CCNCc2ccccc2O)(c2ccc(C)cc2)CCO1 (centres unmarked) [MMV019406]	107
Cc1cccc(-n2ncc3c(=O)[nH]c(-n4nc(C)cc4NC(=O)c4cc5ccccc5o4)nc32)c1 [MMV403679]	109
COC(=O)c1ccc(C2C3=C(O)CC(c4ccc(F)cc4)CC3=Nc3ccccc3N2C(=O)c2ccccc2)cc1 (centres unmarked) [MMV011438]	92.2

Structure (SMILES)	activity at 2 µM [%]
O=C(Nc1cccc(C2=NCCN2)c1)Nc1cccc(C2=NCCN2)c1 [MMV665810]	85.8
O=C(CCl)NCCOc1ccc(Cl)cc1Cl [MMV665927]	98.1
COc1ccc(CCNC(=O)c2cc(S(=O)(=O)N3CC(C)CC(C)C3)ccc2Sc2ccc(F)cc2)cc1OC (centres unmarked) [MMV007557]	102
COc1cc(C(=O)ON=C(N)Cc2cccc3ccccc23)cc(OC)c1OC [MMV666687]	106
Cc1ccc(Nc2nc(-c3ccccn3)cs2)cc1 [MMV007907]	106
O=C(CCc1ccco1)NC1CCN(CC2(c3ccc(Cl)cc3)CCC2)CC1 [MMV666108]	100
OC1CCCCC1C1(NC(=S)Nc2ccccc2)CCCCC1 (centres unmarked) [MMV665980]	101
CCC(c1ccccc1)c1nn2c(-c3cccs3)nnc2s1 (centres unmarked) [MMV665876]	85.7
COc1ccc(C2=C(c3ccc(OC)cc3)C3(c4ccccc4)C(=O)C2(c2ccccc2)C2C(=O)N(c4ccc(C)cc4)C(=O)C23)cc1 (centres unmarked) [MMV666101]	108
Oc1c2c(nc3cc(-c4ccccc4)nn13)CCCC2 [MMV008270]	100
Cc1ccc2nc(C)cc(Nc3cccc(C(F)(F)F)c3)c2c1 [MMV000326]	110
COc1cccc(C2(C)Nc3ccccc3-c3nc4ccccc4n32)c1 (centres unmarked) [MMV396719]	105
CCOc1cccc(C(=O)Nc2ccc(-c3nc4ccccc4[nH]3)cc2)c1 [MMV019202]	118
Cc1ccc(-c2nc3ccccc3o2)cc1NCc1cc(Cc2ccccc2)ccc1O [MMV020912]	99.2
Cc1cc(Nc2cccc(F)c2)nc(NCc2ccccc2)n1 [MMV006319]	102
COc1ccc2nc(C)cc(Nc3cccc(O)c3)c2c1 [MMV008212]	106
CN(C)CCCNc1c2ccccc2nc2ccccc12 [MMV000448]	102

Each compound was assayed on Hyp1-NLuc Plasmodium falciparum-infected erythrocytes (new permeability pathway, NPP) (assay: microbe, parasite or virus in culture). Conditions: Erythrocyte, 0.33 h, read-out: % of control remaining.

Structure (SMILES)	activity at 2 µM [%]
CCOc1ccccc1CN1CCc2nc3cc(C(C)(C)C)nn3c(O)c2C1 [MMV396595]	86.5
FC(F)(F)c1ccc(Nc2nnnc3ccccc23)cc1 [MMV665935]	112
CCCCNCC(O)(c1ccc(Cl)cc1)c1ccc(Cl)cc1 [MMV665929]	122
O=C(CSc1ccc2nnc(-c3cccc(F)c3)n2n1)Nc1ccc2c(c1)OCO2 [MMV665918]	121
COc1ccc(C(=O)C2CC2c2ccc(Cl)cc2)cc1 (centres unmarked) [MMV665924]	103
Cc1ccc(C)c(Cn2c(N3CCC(C(=O)NCc4cccs4)CC3)nc3ccccc32)c1 [MMV019741]	112
CCn1c(SCC(=O)Nc2cc(C(F)(F)F)ccc2Cl)nc2ccccc2c1=O [MMV666103]	113
c1ccc2cc3c(Nc4ccc(N5CCOCC5)cc4)ccnc3cc2c1 [MMV006861]	102
COc1ccc(C=C2SC(Nc3ccccc3)=NC2=O)cc1 [MMV665836]	55.9
OC(CNCC1CCCO1)Cn1c2ccc(Cl)cc2c2cc(Cl)ccc21 (centres unmarked) [MMV396736]	112
COc1cccc(-c2nn(C)c3sc(C(=O)NCCN4CCN(c5ccccc5F)CC4)cc23)c1 [MMV019064]	118
Cc1c(C)n(CC(O)CNC2CCCCC2C)c2ccccc12 (centres unmarked) [MMV665806]	108
Cc1ccc(N2C(=O)C3C(C2=O)C2(c4ccccc4)C(=O)C3(c3ccccc3)C(c3ccccc3)=C2c2ccccc2)cc1 (centres unmarked) [MMV666062]	97.6
CC1=C(CC(=O)c2cccc([N+](=O)[O-])c2)C(=O)c2ccccc2C1=O [MMV666125]	101
CCC1(C)CC(CCNCc2ccccc2O)(c2ccc(C)cc2)CCO1 (centres unmarked) [MMV019406]	105
Cc1cccc(-n2ncc3c(=O)[nH]c(-n4nc(C)cc4NC(=O)c4cc5ccccc5o4)nc32)c1 [MMV403679]	109
COC(=O)c1ccc(C2C3=C(O)CC(c4ccc(F)cc4)CC3=Nc3ccccc3N2C(=O)c2ccccc2)cc1 (centres unmarked) [MMV011438]	89.7

Structure (SMILES)	activity at 2 µM [%]
O=C(Nc1cccc(C2=NCCN2)c1)Nc1cccc(C2=NCCN2)c1 [MMV665810]	84.4
O=C(CCl)NCCOc1ccc(Cl)cc1Cl [MMV665927]	86.2
COc1ccc(CCNC(=O)c2cc(S(=O)(=O)N3CC(C)CC(C)C3)ccc2Sc2ccc(F)cc2)cc1OC (centres unmarked) [MMV007557]	106
COc1cc(C(=O)ON=C(N)Cc2cccc3ccccc23)cc(OC)c1OC [MMV666687]	104
Cc1ccc(Nc2nc(-c3ccccn3)cs2)cc1 [MMV007907]	103
O=C(CCc1ccco1)NC1CCN(CC2(c3ccc(Cl)cc3)CCC2)CC1 [MMV666108]	114
OC1CCCCC1C1(NC(=S)Nc2ccccc2)CCCCC1 (centres unmarked) [MMV665980]	101
CCC(c1ccccc1)c1nn2c(-c3cccs3)nnc2s1 (centres unmarked) [MMV665876]	40.7
COc1ccc(C2=C(c3ccc(OC)cc3)C3(c4ccccc4)C(=O)C2(c2ccccc2)C2C(=O)N(c4ccc(C)cc4)C(=O)C23)cc1 (centres unmarked) [MMV666101]	107
Oc1c2c(nc3cc(-c4ccccc4)nn13)CCCC2 [MMV008270]	56.9
Cc1ccc2nc(C)cc(Nc3cccc(C(F)(F)F)c3)c2c1 [MMV000326]	118
COc1cccc(C2(C)Nc3ccccc3-c3nc4ccccc4n32)c1 (centres unmarked) [MMV396719]	105
CCOc1cccc(C(=O)Nc2ccc(-c3nc4ccccc4[nH]3)cc2)c1 [MMV019202]	117
Cc1ccc(-c2nc3ccccc3o2)cc1NCc1cc(Cc2ccccc2)ccc1O [MMV020912]	94.7
Cc1cc(Nc2cccc(F)c2)nc(NCc2ccccc2)n1 [MMV006319]	104
COc1ccc2nc(C)cc(Nc3cccc(O)c3)c2c1 [MMV008212]	107
CN(C)CCCNc1c2ccccc2nc2ccccc12 [MMV000448]	102
